What all share (experiment): DTP human tumour cell line panel, 48 h
Assay [1] deals with A498.
Assay [2] has as its system A549.
Assay [3] has as its system ACHN.
Assay [4] deals with EKVX.
The test system of assay [5] is HOP-92.
Assay [6] deals with IGROV-1.
The test system of assay [7] is M14.
For assay [8], the system named is MDA-MB-435.
The test system of assay [9] is Malme-3M.
In assay [10] the test system is NCI-H522.
Assay [11] concerns OVCAR-3.
Assay [12] deals with SK-MEL-28.
Assay [13] has as its system SK-MEL-5.
For assay [14], the system named is SK-OV-3.
In assay [15] the test system is SN12C.
In assay [16] the test system is SNB-19.
Assay [17] concerns SNB-75.
Assay [18] deals with TK-10.
Assay [19] deals with UACC-257.
Assay [20] has as its system CCRF-CEM.

The source of these data is ChEMBL document CHEMBL1201862, “PubChem BioAssay data set” (2004).

SMILES strings stand for the structures. Several values for one entry are separate records, joined by “and”; a condition that tells them apart may be missing. Equal entries are not always repeated.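 Assay format: 96-well plates, 48-hour exposure. GI50 marks 50% less growth.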 Activity calls are given as the source filed them. Cut-off read from the data, not from the text of the source: active = GI50 up to about 1.1 µM and inactive = higher.

As usually defined, the GI50 is the concentration that inhibits growth by half.

Turning to `CCOc1ccccc1-c1nc2c(s1)C(=O)c1ccccc1C2=O`, the GI50 in assay [1] is 15.9 µM (inactive); in assay [2] it was 17.1 µM (inactive); in assay [3], 14.9 µM (inactive); in assay [4], 17.2 µM (inactive); in assay [5], 12 µM (inactive); in assay [6], 12.2 µM (inactive). For the same compound, the GI50 was 15.7 µM (inactive) in assay [7]; 2.15 µM (inactive) in [8]; 3.68 µM (inactive) in assay [9]; 11.8 µM (inactive) in assay [10]; 2.25 µM (inactive) in [11]; 16.7 µM (inactive) in assay [12]. The GI50 in assay [13] was 5.12 µM (inactive); in assay [14], 15 µM (inactive); in [15], 18.4 µM (inactive); in assay [16] it was 25.8 µM (inactive); in assay [17] it was 11.4 µM (inactive); in assay [18], 19.3 µM (inactive). Further, in assay [19], the GI50 is 12.9 µM (inactive).

`CSc1nc2c(c(=O)[nH]1)N=C(c1ccccc1)CC(c1ccccc1)N2` (centres undefined): the GI50 is 83.4 µM (inactive) in assay [1]; 32.1 µM (inactive) in [2]; 25.6 µM (inactive) in assay [3]; 26.1 µM (inactive) in assay [20]; 32.1 µM (inactive) in assay [4]; 41.5 µM (inactive) in assay [5]. In addition, the GI50 was 23.4 µM (inactive) in assay [6]; 32.2 µM (inactive) in assay [7]; 40.7 µM (inactive) in assay [8]; 23.4 µM (inactive) in [9]; 19.2 µM (inactive) in assay [10]; 39 µM (inactive) in [11]. Also, the GI50 is 50.6 µM (inactive) in assay [12]; 28.1 µM (inactive) in assay [13]; 33.6 µM (inactive) in assay [14]; 21.2 µM (inactive) in assay [15]; 39.1 µM (inactive) in assay [16]; 11.7 µM (inactive) in [17]. Besides, the GI50 in [19] is 56.5 µM (inactive).

For the compound `O=C1/C(=C/c2ccco2)NC(=S)N1CN1CCCCC1`, the GI50 in assay [1] is > 100 µM (inactive); in assay [2], > 100 µM (inactive); in assay [3], 34 µM (inactive); in assay [20], 21.8 µM (inactive); in assay [4], 98.4 µM (inactive); in assay [5] it was > 100 µM (inactive). Moreover, the GI50 was 81.3 µM (inactive) in assay [6]; 99.3 µM (inactive) in [7]; > 100 µM (inactive) in assay [8]; 85.5 µM (inactive) in assay [9]; > 100 µM (inactive) in assay [10]; > 100 µM (inactive) in [11]. Also, the GI50 in assay [12] was > 100 µM (inactive); in [13], 57.8 µM (inactive); in [14] it was > 100 µM (inactive); in [15], > 100 µM (inactive); in [16] it was 22.6 µM (inactive); in assay [17] it was 58.5 µM (inactive). In addition, the GI50 in assay [18] is > 100 µM (inactive).

As for `CN(/N=C/c1ccccc1C(=O)O)C1=NCCCCN1`, the GI50 in [1], in assay [2], in [3], in assay [20], in assay [4] and in assay [5] was > 100 µM (inactive) each time. The GI50 in assay [6] was > 100 µM (inactive); in assay [7] it was > 100 µM (inactive); in assay [8], > 100 µM (inactive); in assay [9], > 100 µM (inactive); in assay [10], 19.1 µM (inactive); in assay [11], > 100 µM (inactive). The GI50 in assay [13], in [14], in assay [15], in assay [16], in assay [17] and in [18] was > 100 µM (inactive) each time. Also, the GI50 in assay [19] is > 100 µM (inactive).

`CC1=NC(=N)N=C(C)C1/N=N/c1ccc2[nH]c(C)nc2c1` (centres undefined): the GI50 in [1], in assay [2], in assay [3], in assay [20], in assay [4] and in assay [5] was > 100 µM (inactive) each time. The GI50 in assay [6], in [7], in assay [8], in assay [9], in [10] and in assay [11] was > 100 µM (inactive) each time. Also, the GI50 in assay [12], in [14], in assay [15], in assay [16], in assay [17] and in assay [18] was > 100 µM (inactive) throughout. In addition, the GI50 in assay [19] is > 100 µM (inactive).

In the case of `CC(C)C1=CCC2C(=C1)CCC1C(C)(C(=O)O)CCCC21C` (centres undefined), the GI50 in assay [1] is > 100 µM (inactive); in assay [2] it was > 100 µM (inactive); in assay [3] it was 94.8 µM (inactive); in assay [20], > 100 µM (inactive); in assay [4], > 100 µM (inactive); in assay [5], > 100 µM (inactive). Also, the GI50 in [6], in assay [7], in [8], in assay [9], in assay [10] and in [11] was > 100 µM (inactive) throughout. Further, the GI50 in [12], in [13], in [14], in assay [15], in assay [17] and in assay [18] was > 100 µM (inactive) throughout. The GI50 in assay [19] is > 100 µM (inactive).

Turning to `COC(=O)[C@@H]1CC(C(C[N+](=O)[O-])c2ccc(O[Si](C)(C)C(C)(C)C)cc2)C(=O)N1C(=O)OC(C)(C)C` (some centres undefined), the GI50 was > 100 µM (inactive) in assay [1]; 67.6 µM (inactive) and 37.4 µM (inactive) in assay [2]; 27.7 µM (inactive) and 18.1 µM (inactive) in assay [20]; > 100 µM (inactive) and 61.5 µM (inactive) in [4]; 40.1 µM (inactive) and 61 µM (inactive) in assay [5]; > 100 µM (inactive) in assay [6]. Besides, the GI50 in assay [7] is 52.5 µM (inactive); in assay [8], > 100 µM (inactive) and 73.5 µM (inactive); in assay [9], > 100 µM (inactive) and 97.9 µM (inactive); in assay [10] it was 53.2 µM (inactive) and 60.5 µM (inactive); in [11] it was > 100 µM (inactive); in [12], > 100 µM (inactive). Besides, the GI50 in [14] is > 100 µM (inactive); in assay [15], 43.6 µM (inactive) and 69.8 µM (inactive); in [16] it was > 100 µM (inactive); in assay [17], > 100 µM (inactive); in assay [18], > 100 µM (inactive); in [19], > 100 µM (inactive) and 88.7 µM (inactive).

For the compound `O=[N+]([O-])c1cnc(N(CCO)CCO)s1`, the GI50 in [1] is > 100 µM (inactive); in [2] it was > 100 µM (inactive); in assay [3] it was > 100 µM (inactive); in assay [20] it was 79.6 µM (inactive); in assay [4], > 100 µM (inactive); in assay [5], > 100 µM (inactive). The GI50 in assay [6], in assay [7], in assay [8], in [9], in [10] and in assay [11] was > 100 µM (inactive) each time. In addition, the GI50 in assay [12] was > 100 µM (inactive); in [13], > 100 µM (inactive); in [14], > 100 µM (inactive); in assay [15], > 100 µM (inactive); in assay [16], > 100 µM (inactive); in assay [17], < 0.01 µM (active). The GI50 in assay [19] was > 100 µM (inactive).

In the case of `C#CCOC(=O)C(N)CS` (centres undefined), the GI50 in [1], in [2], in assay [3], in assay [20], in assay [4] and in assay [5] was > 100 µM (inactive) throughout. Besides, the GI50 in assay [6], in assay [7], in [8], in assay [9], in assay [10] and in assay [11] was > 100 µM (inactive) each time. The GI50 in assay [12], in assay [13], in assay [14], in assay [15], in assay [17] and in [18] was > 100 µM (inactive) each time. The GI50 in [19] was > 100 µM (inactive).

With `COc1ccc(CC(C#N)c2cc(OC)c(OC)c(OC)c2)cc1` (centres undefined), the GI50 in assay [1] was 0.179 µM (active); in [2], 0.0525 µM (active); in assay [3] it was 0.796 µM (active); in assay [20], 0.0668 µM (active); in assay [4], 1.56 µM (inactive); in [5], 0.366 µM (active). Also, the GI50 in assay [6] is 0.0809 µM (active); in [7], 0.0472 µM (active); in [8], < 0.01 µM (active); in assay [9], 0.0361 µM (active); in assay [10], 0.0267 µM (active); in [11], 0.0279 µM (active). Besides, the GI50 in assay [12] is 0.0619 µM (active); in assay [13], 0.0266 µM (active); in assay [14], 0.0474 µM (active); in assay [15] it was 0.135 µM (active); in assay [16], 0.0986 µM (active); in assay [17] it was 0.0475 µM (active). The GI50 in assay [19] is 0.0356 µM (active).
